From publication PMC10439028, “SGLT5 is the renal transporter for 1,5-anhydroglucitol, a major player in two rare forms of neutropenia” (Cellular and Molecular Life Sciences: CMLS, 2023)

Experiments:
hSGLT5 Ala522Val = target: T1, hSGLT5 Ala522Val (Homo sapiens, UniProt A0PJK1, A522V); test: Inhibition of 10 µM 1,5-AG transport by SGLT5 variant Ala522Val; format: cell-based; details: Fig. 5D
T1 construct: pUB83-hSGLT5-iso2 as well as the various SGLT5 mutants obtained were used to transduce HEK293T cells; expressed in transfected cells; host or cells: HEK293T, lentiviral transduction (pUB83)
T1 sequence (A0PJK1 1-596 A522V): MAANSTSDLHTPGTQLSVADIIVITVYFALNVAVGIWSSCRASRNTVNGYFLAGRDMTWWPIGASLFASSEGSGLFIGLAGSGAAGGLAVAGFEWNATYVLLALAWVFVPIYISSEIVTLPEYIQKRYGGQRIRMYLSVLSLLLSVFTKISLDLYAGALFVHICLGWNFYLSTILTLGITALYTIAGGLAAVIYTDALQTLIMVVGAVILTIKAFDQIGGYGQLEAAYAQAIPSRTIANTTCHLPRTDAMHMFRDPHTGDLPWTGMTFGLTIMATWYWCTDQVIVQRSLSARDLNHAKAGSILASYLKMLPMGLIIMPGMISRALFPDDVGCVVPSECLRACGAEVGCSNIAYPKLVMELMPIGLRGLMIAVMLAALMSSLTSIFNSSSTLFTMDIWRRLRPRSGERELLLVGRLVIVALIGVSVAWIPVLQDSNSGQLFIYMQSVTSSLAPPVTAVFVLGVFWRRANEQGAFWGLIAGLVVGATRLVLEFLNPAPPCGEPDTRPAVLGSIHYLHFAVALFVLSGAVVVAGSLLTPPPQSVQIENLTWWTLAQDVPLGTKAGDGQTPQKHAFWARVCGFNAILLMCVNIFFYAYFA
Procedure: The transport experiments to study the specificity of SGLT4 or SGLT5, were performed in the presence of 10 µM U-[^14C + ^12C]-mannose (for SGLT4) or 2-[^3H + ^1H]-1,5-AG (for SGLT5) and increasing concentrations of various sugars tested. The transport experiments to study the inhibition of empagliflozin, dapagliflozin or remogliflozin, on the transport of 1,5-AG by SGLT5 or its variants were performed in the presence of 10 µM 2-[^3H + ^1H]-1,5-AG and increasing concentrations of the various gliflozins tested.
SGLT5 mutants were created using the quick-change site directed mutagenesis method that enables effective mutagenesis without subcloning of the amplified PCR products. Complementary primer pairs carrying the desired replacements (Supplementary Table 3) were designed using an online tool (https://www.agilent.com/store/primerDesignProgram.jsp). The PCR protocol was carried out following the manufacturer instructions regarding the KOD HOT Start polymerase kit (TOYOBO™, Novagen). The amplified DNA was cleaned-up from the reactions constituents using the GeneJET PCR purification Kit (Thermo Scientific™) and the size of the DNA fragment were verified by DNA agarose-gel electrophoresis. […]

mouse SGLT4 = target: T2, mouse SGLT4 (Mus musculus, UniProt Q8VDT1); test: Inhibition of 50 µM mannose transport in HEK293T cells expressing mouse SGLT4; format: cell-based; details: 10 mM 1,5-AG
T2 construct: expressed in transfected cells; host or cells: HEK293T
T2 sequence (Q8VDT1 1-685): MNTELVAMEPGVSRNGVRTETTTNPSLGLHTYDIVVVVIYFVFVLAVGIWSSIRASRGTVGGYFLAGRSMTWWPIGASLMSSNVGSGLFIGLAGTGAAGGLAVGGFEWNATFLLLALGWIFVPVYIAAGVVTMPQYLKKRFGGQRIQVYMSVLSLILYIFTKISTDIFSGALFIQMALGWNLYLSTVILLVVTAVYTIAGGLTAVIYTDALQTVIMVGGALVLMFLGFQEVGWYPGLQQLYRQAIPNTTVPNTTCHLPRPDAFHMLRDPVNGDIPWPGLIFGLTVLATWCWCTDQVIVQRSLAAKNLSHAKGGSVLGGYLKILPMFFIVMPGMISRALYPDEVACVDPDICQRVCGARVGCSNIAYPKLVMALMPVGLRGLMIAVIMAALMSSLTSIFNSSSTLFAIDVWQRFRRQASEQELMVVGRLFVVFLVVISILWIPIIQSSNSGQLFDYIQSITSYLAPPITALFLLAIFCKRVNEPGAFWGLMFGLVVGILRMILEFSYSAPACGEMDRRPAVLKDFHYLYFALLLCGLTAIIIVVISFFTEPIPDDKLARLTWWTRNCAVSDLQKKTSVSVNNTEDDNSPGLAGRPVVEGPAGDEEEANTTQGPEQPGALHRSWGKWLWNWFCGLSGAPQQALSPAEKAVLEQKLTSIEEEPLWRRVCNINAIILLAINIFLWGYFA
Procedure: Supplementary Fig. 4: Transport activities for 1,5-anhydroglucitol and mannose of recombinant mouse SGLT4 and SGLT5 isoforms measured in HEK293T cells.
Transport was measured in 24 well plates with 0.6x10^6 cells during 30 mins at 37°C in 5% CO2 in the presence of the indicated concentrations of 2-[1H+3H]-1,5-AG for both mSGLT4 (A) and mSGLT5 (B) and U-[12C+14C]-mannose (C) for mSGLT4. The saturation curves for the transport activities and the derived kinetic constants (Km and Vmax) are shown and indicate that mSGLT4 appears to be able to transport 1,5-anhydroglucitol but with a very low affinity (Km > 5 mM – panel A) compared to mannose (Km = 0.2 mM – panel C), while mSGLT5 transports efficiently 1,5-anhydroglucitol (Km = 0.5 mM – panel B). (D) 10 mM 1,5- […]
U-[12C+14C]-mannose) for both the human (hSGLT4) and the mouse (mSGLT4) isoforms of […]
(also on this page, place not known: Transport of (pmol/min/100 cells) Transport of (pmol/min/100 cells) 000 Transport of 1,5-AG (pmol/min/100 000 cells) 000 hSGLT4 mSGLT4 Mannose transport activity (% of the value at [12C+14C]-mannose) 50 µM mannose 1,5-AG)

effect of mutation on concentration of empagliflozin needed to inhibit SGLT5 (hSGLT5 Ala522Val) | SMILES | inhibition of mouse SGLT4 transport activity (mouse SGLT4)
did not affect significantly | OC[C@H]1O[C@@H](c2ccc(Cl)c(Cc3ccc(O[C@H]4CCOC4)cc3)c2)[C@H](O)[C@@H](O)[C@@H]1O [empagliflozin] | 
 | OC[C@H]1OC[C@H](O)[C@@H](O)[C@@H]1O [1,5-AG, 1,5-anhydroglucitol] | barely inhibited
